The source made the active and inactive calls. The calls are words filed in the database; no cut-off is given here.
Legend:
[1] = pampa
[2] = target: T1, Casein kinase I isoform delta (Homo sapiens, UniProt P48730); details: at 10 µM
Target sequence in this assay (P48730 whole entry, looked up, canonical isoform): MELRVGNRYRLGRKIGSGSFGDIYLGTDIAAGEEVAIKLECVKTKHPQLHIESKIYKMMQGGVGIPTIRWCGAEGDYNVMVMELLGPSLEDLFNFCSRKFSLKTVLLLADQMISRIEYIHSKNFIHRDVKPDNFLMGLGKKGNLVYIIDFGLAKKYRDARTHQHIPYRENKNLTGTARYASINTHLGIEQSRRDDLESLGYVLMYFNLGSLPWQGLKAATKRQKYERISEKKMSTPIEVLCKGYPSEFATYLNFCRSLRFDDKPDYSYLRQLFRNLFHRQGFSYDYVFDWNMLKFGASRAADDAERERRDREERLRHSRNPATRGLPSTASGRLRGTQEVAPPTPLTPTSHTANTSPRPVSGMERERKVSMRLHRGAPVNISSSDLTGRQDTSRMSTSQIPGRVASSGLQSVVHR
Description: Inhibition of human recombinant CK-1delta using casein as substrate at 10 uM after 60 mins by Kinase-Glo assay relative to control

[3] = target: T1, Casein kinase I isoform delta; assay: Inhibition of human recombinant CK-1delta using casein as substrate after 60 mins by Kinase-Glo assay
Target sequence in this assay (P48730 whole entry, canonical isoform): as the sequence (P48730 whole entry, looked up, canonical isoform) above

[4] = target: T1, Casein kinase I isoform delta; assay: Competitive inhibition of human recombinant CK-1delta using casein as substrate at 0.25 to 0.5 uM by Lineweaver-Burk plot analysis in presence of ATP
Target sequence in this assay (P48730 whole entry, looked up, canonical isoform): as above

| inhibition [2] [%] | SMILES | other results |
| --- | --- | --- |
| > 60 | O=C(Cc1cccc(C(F)(F)F)c1)Nc1nc2ccc(C(F)(F)F)cc2s1 | permeability [1]: 6.4 ×10⁻⁶ cm/s |
| > 60 | COc1ccccc1CC(=O)Nc1nc2ccc(C(F)(F)F)cc2s1 | permeability [1]: 11.2 ×10⁻⁶ cm/s |
| > 60 | O=C(Cc1ccc(Cl)cc1)Nc1nc2ccc(C(F)(F)F)cc2s1 | permeability [1]: 9.6 ×10⁻⁶ cm/s |
| > 60 | O=C(Cc1ccccc1)Nc1nc2ccc(C(F)(F)F)cc2s1 | permeability [1]: 4.4 ×10⁻⁶ cm/s |
|  | CN1C(C(=O)Nc2ccccn2)=C(O)c2ccccc2S1(=O)=O [PIROXICAM] | permeability [1]: 0.5 ×10⁻⁶ cm/s |
| > 60 | CCOc1ccc2nc(NC(=O)Cc3ccc(OC)cc3)sc2c1 |  |
| > 60 | COc1ccc2nc(NC(=O)Cc3ccc(Cl)cc3)sc2c1 |  |
| > 60 | CCOC(=O)c1sc(NC(=O)COCc2ccccc2)nc1C | IC50 [3]: 7.38 µM |
| > 60 | COc1ccc2nc(NC(=O)Cc3cccc(Cl)c3)sc2c1 |  |
| > 60 | CCOc1ccc2nc(NC(=O)Cc3ccc(Cl)cc3)sc2c1 | IC50 [3]: 1.11 µM |
|  | CCOC(=O)c1sc(NC(=O)CNC(=O)c2ccc(N3CCOCC3)cc2)nc1C | IC50 [3]: 9.31 µM |
|  | CS(=O)(=O)c1ccc2nc(NC(=O)Cc3cccs3)sc2c1 | IC50 [3]: 2.69 µM |
| > 60 | O=C(Cc1ccccc1Cl)Nc1nc2ccc(C(F)(F)F)cc2s1 |  |
| > 60 | COc1ccc2nc(NC(=O)Cc3ccc(Cl)c(Cl)c3)sc2c1 |  |
| > 60 | O=C(Nc1nc2ccccc2s1)C(c1ccccc1)c1ccccc1 |  |
| > 60 | COc1ccc2nc(NC(=O)Cc3ccccc3Cl)sc2c1 |  |
| > 60 | COc1ccccc1CC(=O)Nc1nc2ccc(Cl)cc2s1 |  |
| > 60 | COc1ccccc1CC(=O)Nc1nc2ccc(C)cc2s1 |  |
| > 60 | O=C(Cc1ccc(Cl)cc1)Nc1nc2ccccc2o1 | IC50 [3]: 4.11 µM |
| > 60 | CCOc1ccc2nc(NC(=O)Cc3ccc(Cl)c(Cl)c3)sc2c1 |  |
| > 60 | COc1ccc(CC(=O)Nc2nc3ccc(C(F)(F)F)cc3s2)cc1 | permeability [1]: 14.6 ×10⁻⁶ cm/s |
| > 60 | COc1ccc(NC(=O)Nc2nc3ccc(C(F)(F)F)cc3s2)cc1 |  |
| > 60 | COc1ccc(OC)c(CC(=O)Nc2nc3ccc(C(F)(F)F)cc3s2)c1 |  |
| > 60 | COc1cccc(CC(=O)Nc2nc3ccc(OC)cc3s2)c1 |  |
| > 60 | COc1cc(CC(=O)Nc2nc3ccc(C(F)(F)F)cc3s2)cc(OC)c1OC | permeability [1]: 7.2 ×10⁻⁶ cm/s |
| > 60 | O=C(Cc1ccccc1)Nc1nc2ccccc2s1 |  |
|  | CN(C)CCCN1c2ccccc2Sc2ccccc21 [PROMAZINE] | permeability [1]: 12.7 ×10⁻⁶ cm/s |
| > 60 | CCOc1ccc2nc(NC(=O)Cc3ccccc3Cl)sc2c1 |  |

| inhibition [2] [%] | SMILES | other results |
| --- | --- | --- |
| > 60 | COc1cccc(CC(=O)Nc2nc3ccc(C(F)(F)F)cc3s2)c1 | permeability [1]: 11.2 ×10⁻⁶ cm/s |
| > 60 | COc1ccccc1CC(=O)Nc1nc2ccc(OC(F)(F)F)cc2s1 |  |
| > 60 | O=C(Cc1cccc(Cl)c1)Nc1nc2ccc(C(F)(F)F)cc2s1 | permeability [1]: 11.2 ×10⁻⁶ cm/s |
| > 60 | COc1ccccc1CC(=O)Nc1nc2ccc(F)cc2s1 |  |
| > 60 | O=C(Cc1ccc(Cl)c(Cl)c1)Nc1nc2ccc(OC(F)(F)F)cc2s1 |  |
| > 60 | COc1cc(CC(=O)Nc2nc3ccc(OC(F)(F)F)cc3s2)cc(OC)c1OC | permeability [1]: 2.6 ×10⁻⁶ cm/s |
| > 60 | CCOc1ccc2nc(NC(=O)Cc3cccc(OC)c3)sc2c1 |  |
| > 60 | Cc1ccc2nc(NC(=O)Cc3cccc(Cl)c3)sc2c1 | permeability [1]: 5.6 ×10⁻⁶ cm/s |
| > 60 | COc1ccc2nc(NC(=O)Cc3ccccc3OC)sc2c1 |  |
| > 60 | COc1ccccc1CC(=O)Nc1nc2ccc(Br)cc2s1 |  |
|  | CCOC(=O)c1sc(NC(=O)CNC(=O)c2ccccc2)nc1C | IC50 [3]: 7.45 µM |
| > 60 | COc1ccc(CC(=O)Nc2nc3ccc(OC)cc3s2)cc1 |  |
| > 60 | CCOc1ccc2nc(NC(=O)Cc3ccccc3OC)sc2c1 |  |
|  | COc1cc(OC)c(C=C2C(=O)Nc3ccccc32)c(OC)c1 | inhibition [4]: Active |
| > 60 | CC(=O)c1sc(NC(=O)Cc2cccc(Cl)c2)nc1C | IC50 [3]: 1.12 µM |
| > 60 | O=C(Cc1ccc(Cl)c(Cl)c1)Nc1nc2ccc(C(F)(F)F)cc2s1 | permeability [1]: 1.4 ×10⁻⁶ cm/s |
| > 60 | COc1ccc2nc(NC(=O)Cc3cc(OC)c(OC)c(OC)c3)sc2c1 | IC50 [3]: 1.12 µM |
|  | CCOC(=O)c1sc(NC(=O)CNC(=O)Cc2ccccc2)nc1C | IC50 [3]: 10.1 µM |
|  | CNCCCN1c2ccccc2CCc2ccccc21 [DESIPRAMINE] | permeability [1]: 14.6 ×10⁻⁶ cm/s |
| > 60 | CCOc1ccc2nc(NC(=O)Cc3cccc(Cl)c3)sc2c1 |  |
| > 60 | CCOc1ccc2nc(NC(=O)Cc3cc(OC)c(OC)c(OC)c3)sc2c1 |  |
| 20 | O=C(Cc1cccc(Cl)c1)Nc1nncs1 |  |
| > 60 | O=C(CC(c1ccccc1)c1ccccc1)Nc1nc2ccccc2s1 |  |
| > 60 | O=C(Cc1cccc(Cl)c1)Nc1nc2ccc(OC(F)(F)F)cc2s1 |  |
| > 60 | CCOc1ccc2nc(NC(=O)C(c3ccccc3)c3ccccc3)sc2c1 |  |
| > 60 | O=C(CCc1cccc(Cl)c1)Nc1nc2ccccc2s1 |  |
|  | CCOC(=O)c1sc(NC(=O)CNC(=O)CC(c2ccccc2)c2ccccc2)nc1C | IC50 [3]: 3.79 µM |

Source: ChEMBL document CHEMBL3232937
